Results taken from patent publication US7674793B2, “Tricyclic dihydropyrazines as potassium channel openers” (Janssen Pharmaceutica NV, priority 2006, dated 2010).

The compounds below were run against T1, KATP channels (Homo sapiens, UniProt O60706+Q14654) (assay: Potassium Channel Assay (FLIPR membrane potential dye, TE671 cells)). Settings: percent response at 30 μM; TE671 human medulloblastoma cells; hyperpolarization seen as decrease in fluorescent intensity, room temperature.
T1 construct: TE671 human medulloblastoma cells were obtained from ATCC; host or cells: TE671 human medulloblastoma cells
T1 sequence (O60706 1-1549 isoform O60706-2): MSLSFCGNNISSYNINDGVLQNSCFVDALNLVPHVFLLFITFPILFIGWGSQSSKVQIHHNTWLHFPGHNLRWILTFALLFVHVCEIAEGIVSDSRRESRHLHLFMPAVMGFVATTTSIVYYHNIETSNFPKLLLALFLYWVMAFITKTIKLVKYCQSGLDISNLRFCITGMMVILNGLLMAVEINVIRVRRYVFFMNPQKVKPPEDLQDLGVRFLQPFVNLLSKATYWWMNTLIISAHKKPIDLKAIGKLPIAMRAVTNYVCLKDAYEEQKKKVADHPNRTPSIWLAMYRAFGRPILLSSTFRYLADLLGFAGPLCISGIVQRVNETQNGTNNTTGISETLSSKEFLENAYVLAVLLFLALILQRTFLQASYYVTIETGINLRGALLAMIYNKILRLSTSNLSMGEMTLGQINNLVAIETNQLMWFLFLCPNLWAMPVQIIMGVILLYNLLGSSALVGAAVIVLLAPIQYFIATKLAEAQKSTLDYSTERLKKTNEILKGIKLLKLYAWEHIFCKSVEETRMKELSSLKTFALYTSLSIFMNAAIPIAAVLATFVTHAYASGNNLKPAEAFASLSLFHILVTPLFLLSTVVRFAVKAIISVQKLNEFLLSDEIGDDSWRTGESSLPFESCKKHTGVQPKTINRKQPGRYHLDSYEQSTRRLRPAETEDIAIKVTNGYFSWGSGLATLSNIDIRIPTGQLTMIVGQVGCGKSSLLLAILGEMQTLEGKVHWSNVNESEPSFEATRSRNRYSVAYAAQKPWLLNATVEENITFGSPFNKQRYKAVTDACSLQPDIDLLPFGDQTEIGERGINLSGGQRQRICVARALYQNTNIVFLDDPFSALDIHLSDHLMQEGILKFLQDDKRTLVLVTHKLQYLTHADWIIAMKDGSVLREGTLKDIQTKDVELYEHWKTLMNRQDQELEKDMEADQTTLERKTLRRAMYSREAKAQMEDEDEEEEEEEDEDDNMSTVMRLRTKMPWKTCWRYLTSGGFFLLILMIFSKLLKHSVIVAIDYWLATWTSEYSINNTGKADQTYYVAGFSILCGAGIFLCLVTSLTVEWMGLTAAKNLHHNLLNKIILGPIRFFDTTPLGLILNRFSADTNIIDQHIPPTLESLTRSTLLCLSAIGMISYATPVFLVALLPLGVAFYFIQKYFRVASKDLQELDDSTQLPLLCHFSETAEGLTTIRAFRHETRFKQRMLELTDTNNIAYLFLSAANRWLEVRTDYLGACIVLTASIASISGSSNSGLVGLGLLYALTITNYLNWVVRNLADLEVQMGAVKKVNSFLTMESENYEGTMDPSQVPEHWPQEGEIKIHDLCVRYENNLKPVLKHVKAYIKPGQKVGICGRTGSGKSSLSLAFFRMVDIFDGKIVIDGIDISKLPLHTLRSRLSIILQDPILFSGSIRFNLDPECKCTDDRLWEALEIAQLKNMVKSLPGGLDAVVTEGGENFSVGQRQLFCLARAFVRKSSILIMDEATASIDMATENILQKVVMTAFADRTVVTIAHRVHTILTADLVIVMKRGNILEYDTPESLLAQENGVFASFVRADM
T1 sequence (Q14654 whole entry): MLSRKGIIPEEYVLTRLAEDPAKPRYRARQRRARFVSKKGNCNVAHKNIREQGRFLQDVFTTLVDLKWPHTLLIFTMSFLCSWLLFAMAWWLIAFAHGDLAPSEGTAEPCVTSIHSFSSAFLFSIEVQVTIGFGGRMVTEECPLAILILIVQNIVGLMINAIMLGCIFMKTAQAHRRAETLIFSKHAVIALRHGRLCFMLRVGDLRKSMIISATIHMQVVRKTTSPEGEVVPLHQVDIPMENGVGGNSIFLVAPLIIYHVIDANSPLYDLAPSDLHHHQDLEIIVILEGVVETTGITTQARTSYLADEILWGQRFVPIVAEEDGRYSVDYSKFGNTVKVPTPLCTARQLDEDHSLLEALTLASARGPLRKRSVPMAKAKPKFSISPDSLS
Type: cell-based
Set-up: key: Active: A compound was designated as active if it produced greater than or equal to 10% response at 30 μM; Inactive: A compound was designated as inactive if it produced less than 10% response at 30 μM
Method: TE671 human medulloblastoma cells were obtained from ATCC and grown in Dulbecco's modified Eagle's medium (DMEM) supplemented with 10% fetal bovine serum, 100 U/ml penicillin and 100 U/ml streptomycine.
The day before testing, the cells were plated in black 96-well plates at 50 K/well. On the day of testing, the growth media was removed, then 100 μl of FLIPR buffer (20 mM HEPES, 120 mM NaCl, 2 mM KCl, 2 mM CaCl2, 1 mM MgCl2, 5 mM Glucose) and 100 μl of Membrane Potential Assay Dye (Molecular Devices) dissolved in FLIPR buffer were added to each well. The cells were incubated at room temperature for 15 to 30 min.
The effect of test compounds on KATP channels were evaluated on a fluorometric imaging plate reader (FLIPR, Molecular Devices) at room temperature. After a baseline period, 50 μl of 5× stock solution of test compound prepared in FLIPR buffer was added and fluorescent change was monitored for 3 minutes. After this reading, glyburide, a KATP channel blocker, was added to a final concentration of 5 μM to check the specificity of the test compound as a KATP channel openers. Hyperpolarization resulting from KATP channel opening was observed as a decrease in fluorescent intensity.
Representative compounds of the present invention were tested according to the procedure described above, with results as listed in Table BIO1 below. Test compound activity was determined as the percent. A compound was designated as active if it produced greater than or equal to 10% response at 30 μM.

Response, Active:
O=C1CCCC(O)=C1N(C1=C(O)CCCC1=O)c1ccc(F)c(F)c1 [compound 2]
O=C1CCCC(O)=C1N(C1=C(O)CCCC1=O)c1cccc(I)c1 [compound 3]
N#Cc1cccc(N(C2=C(O)CCC2=O)C2=C(O)CCC2=O)c1 [compound 5]
